Results on two compounds are retold here after patent US7541398B2, “Method for transformation of conventional and commercially important polymers into durable and rechargeable antimicrobial polymeric materials” (priority 2005, dated 2009).

This data set in a line: Durability of SHC powders: active chlorine content titrated after storage under ambient conditions. Format: physicochemical. Conditions: for active chlorine content: as synthesized, before storage; for Active chlorine content, 2 month / Active chlorine content, 4 month / Active chlorine content, 6 month: storage at about 25° C.±3, humidity about 60±10%. How it is done: Durability and Rechargeability of the SHCs. Durability: After storage under ambient conditions (e.g., temperature about 25° C.±3, humidity about 60±10%) for a certain period of time, the active chlorine contents in the SHC samples were titrated and the results were listed in Table 3.

In the case of “N-chloro-[(2,2,6,6-tetramethyl-4-piperidyl) alkyl formate] [SHC-3]”, the active chlorine content entry is reported as “about 7.86%”; the “Active chlorine content, 2 month” value came to 8.10 wt. %; the “Active chlorine content, 4 month” value stood at 7.70 wt. %; the “Active chlorine content, 6 month” value amounted to 7.30 wt. %.
`CC1(C)CC(OC(=O)CCCCCCCCC(=O)OC2CC(C)(C)N(Cl)C(C)(C)C2)CC(C)(C)N1Cl` [SHC-1, Bis(N-chloro-2,2,6,6-tetramethyl-4-piperidyl)sebacate]: the active chlorine content is on record as 12.5%; the “Active chlorine content, 2 month” value is 12.6 wt. %; the “Active chlorine content, 4 month” value stood at 12.8 wt. %; the “Active chlorine content, 6 month” value was 12.4 wt. %.
